Measurements as given in patent US20100112600A1, “Methods and compositions for modulating synapse formation” (priority 2006, published 2010).
One block for each molecule: values may come before it.

Columns and labels:
Nur77 promoter = experiment: Nur77-luciferase reporter gene assay in granule neurons; assay type: cell-based, rat; settings: depolarized granule neurons
Method: FIG. 5C is a bar graph. […] Treatment with CsA prevented depolarization-induced expression of the WT Nur77-luciferase reporter gene (p<0.0001, ANOVA; n=6), but had no effect on MREmut Nur77-luciferase reporter gene.
(§1) Luciferase assays were performed as described (Shalizi et al., 2006, Science 311: 1012-1017) with minor modifications. Granule neurons were transfected with the reporter constructs pNur77-luc or pNur77mut-luc and pRL-TK and the indicated hpRNA expression plasmids, and an expression construct for Bcl-XL. Granule neurons were switched from full medium to fresh BME supplemented with 5% calf serum (Hyclone) 72 hours after transfection and incubated overnight. 293T cells maintained as described were cotransfected with p5G4luc or pMEF2×3luc and pRL-TK reporter constructs and the indicated expression plasmids by DNA-calcium phosphate precipitation. Fresh growth media was added within 24 hours of transfection. Cells were lysed 48 hours after transfection. In both neurons and 293T cells, firefly-and renilla-luciferase activities were determined using a dual-luciferase assay kit (Promega) according to the manufacturers instructions.
Primary rat cerebellar granule neurons were transfected with the U6/piasx1, U6/piasx2, or control U6 RNAi plasmid together with a luciferase reporter gene controlled by the Nur77 promoter containing two MEF2 response elements (MREs). […]

MEF2A Ser408 = experiment: Immunoblot of phospho-Ser408 MEF2A in depolarized granule neurons; assay type: cell-based, rat; settings: granule neurons depolarized with 25 mM KCl; Nim 20 μM, CsA 4 μM
Method: Lysates of granule neurons were depolarized with 25 mM KCl were immunoblotted for MEF2A, phospho-Ser408 MEF2A or ERK1/2. Nim=Nimodipine, 20 μM.
Cultures of primary granule neurons were isolated from P6 Long-Evans rats using known methods. Granule neurons were maintained in full medium (BME+10% calf serum (Hyclone), 1 mM each penicillin, streptomycin and L-glutamine and 25 mM KCl). Granule neurons were transfected in DMEM by DNA-calcium phosphate precipitation using standard methods.

endogenous MEF2A = experiment: Immunoblot of sumoylation and acetylation of endogenous MEF2A in depolarized granule neurons; assay type: cell-based, rat
Method: In FIG. 3F, granule neurons in non-depolarizing concentrations of KCl (5 mM) were lysed in the presence or absence of the isopeptidase inhibitor N-ethylmaleimide (NEM) and immunoblotted for MEF2A. […] In FIG. 3G, granule neurons are exposed to media containing non-depolarizing (5 mM) or depolarizing (25 mM) concentrations of KCl in the presence of nimodipine (Nim) or its control vehicle (DMSO) were lysed in the presence of NEM and immunoblotted as in FIG. 3F. […] Cultures of primary granule neurons were isolated from P6 Long-Evans rats using known methods. Granule neurons were maintained in full medium (BME+10% calf serum (Hyclone), 1 mM each penicillin, streptomycin and L-glutamine and 25 mM KCl).

[1] = test system: granule neuron dendritic claws; experiment: Dendritic claw number of granule neurons in organotypic cerebellar slices; assay type: cell-based, rat
Method: The role that MEF2A plays in synaptic dendritic development in the cerebellar cortex was determined. […] To visualize granule neurons undergoing postsynaptic differentiation, organotypic cerebellar slices prepared from postnatal day 9 (P9) rat pups were transfected with an expression plasmid encoding green fluorescent protein (GFP). Transfected granule neurons in the internal granular layer (IGL) had the typical small cell body with associated parallel axonal fibers and few dendrites (FIGS. 1A and 1B). Many dendrites harbored structures with the appearance of dendritic claws that were identified based on classic descriptions as: (i) located at the end of a dendrite, (ii) having cup- or sickle-like appearance, and (iii) displaying undulating or serrated inner surfaces (FIGS. 1C and 1D). […] The effect of MEF2A knockdown on granule neuron dendritic morphogenesis was next determined. Cerebellar slices were transfected with the U6/mef2a plasmid that encodes MEF2A hairpin RNAs (MEF2AhpRNA) or the control U6 plasmid together with a GFP expression plasmid.
Slices were prepared and processed using known methods. […]
Microscopy was carried out using standard methods. […] Images of transfected granule neurons were analyzed using SPOT software for dendritic length, number of primary dendrites, and number of branches per primary dendrite as described.

[2] = test system: MEF2-response elements (MRE-luciferase); experiment: MRE-luciferase reporter gene assay in cells; assay type: cell-based; settings: co-transfected expression plasmid
Method: FIG. 4B is a bar graph and a series of immunoblots. Cells coexpressing MEF2A and increasing amounts of MEF2A-SUMO together with a 3-MRE luciferase reporter gene (pMEF2×3-luc) and pRL-TK. […] Lysates were also immunoblotted for MEF2 or ERK1/2.
as §1
Sumoylation of MEF2A represses MEF2-dependent transcription. The effect of PIASx expression on MEF2-dependent transcription in cells was examined. […]

MREmut Nur77-luciferase reporter gene (Nur77 promoter; Nur77 promoter with mutant MRE): no effect
depolarization-induced expression of the WT Nur77-luciferase reporter gene (Nur77 promoter; Nur77 promoter with wild type MRE): prevented
Molecule: cyclosporin A
depolarization-induced dephosphorylation of MEF2A at Ser408 (MEF2A Ser408): blocked
acetylation of endogenous MEF2A (endogenous MEF2A; depolarized neurons): decreased
sumoylation of endogenous MEF2A (endogenous MEF2A; depolarized neurons (25 mM KCl)): increased

B1: PIASx: MEF2A SUMO E3 ligase; PIASxα and PIASxβ isoforms collectively (protein, UniProt O75928 1-621, looked up)
E3 SUMO-protein ligase PIAS2: MADFEELRNMVSSFRVSELQVLLGFAGRNKSGRKHDLLMRALHLLKSGCSPAVQIKIRELYRRRYPRTLEGLSDLSTIKSSVFSLDGGSSPVEPDLAVAGIHSLPSTSVTPHSPSSPVGSVLLQDTKPTFEMQQPSPPIPPVHPDVQLKNLPFYDVLDVLIKPTSLVQSSIQRFQEKFFIFALTPQQVREICISRDFLPGGRRDYTVQVQLRLCLAETSCPQEDNYPNSLCIKVNGKLFPLPGYAPPPKNGIEQKRPGRPLNITSLVRLSSAVPNQISISWASEIGKNYSMSVYLVRQLTSAMLLQRLKMKGIRNPDHSRALIKEKLTADPDSEIATTSLRVSLMCPLGKMRLTIPCRAVTCTHLQCFDAALYLQMNEKKPTWICPVCDKKAAYESLILDGLFMEILNDCSDVDEIKFQEDGSWCPMRPKKEAMKVSSQPCTKIESSSVLSKPCSVTVASEASKKKVDVIDLTIESSSDEEEDPPAKRKCIFMSETQSSPTKGVLMYQPSSVRVPSVTSVDPAAIPPSLTDYSVPFHHTPISSMSSDLPGLDFLSLIPVDPQYCPPMFLDSLTSPLTASSTSVTTTSSHESSTHVSSSSSRSETGVITSSGSNIPDIISLD
dendritic claw number on expression of the construct ([1]; cerebellar slices transfected with expression plasmid vs control vector): robustly increased
MRE-dependent transcription (luciferase reporter) [2]: potently inhibited

B2: PIASx-Res: wild type PIASx protein expressed from cDNA resistant to piasx2 hpRNAs (protein, UniProt O75928 1-621, looked up)
E3 SUMO-protein ligase PIAS2: B1 E3 SUMO-protein ligase PIAS2
modifications: expressed from hpRNA-resistant cDNA
notes: wild type PIASx protein expressed from cDNA resistant to piasx2 hpRNAs
number of claws restored, relative to control U6 transfected cerebellar slices ([1]; expression in the background of piasx2 RNAi): ~80%
